One test deals with T1, uaZ (Glutamicibacter nicotianae, UniProt A0ABQ0RHS3).
T1 construct: gene ANI01nite_05670; E. coli BL21(DE3) soluble extract, no purification described; about 34 kDa; primers encode N-term MTTEITAPAD, C-term IWANIPAFI
The test is described as follows: OTC depletion by HPLC after adding […] mg expressed protein extract. The format is biochemical. The conditions noted are these: LB broth without strain OTC-16, 30 C, 180 rpm, 4 days, product not identified, not described as purified.

For another test, the target named is T2, prpD (Glutamicibacter nicotianae, UniProt A0ABQ0RQ59).
T2 construct: gene ANI01nite_31520; E. coli BL21(DE3) soluble extract, no purification described; about 55 kDa; primers encode N-term MINHPVR, C-term PKGLF
T2 sequence (A0ABQ0RQ59 entry or part of it): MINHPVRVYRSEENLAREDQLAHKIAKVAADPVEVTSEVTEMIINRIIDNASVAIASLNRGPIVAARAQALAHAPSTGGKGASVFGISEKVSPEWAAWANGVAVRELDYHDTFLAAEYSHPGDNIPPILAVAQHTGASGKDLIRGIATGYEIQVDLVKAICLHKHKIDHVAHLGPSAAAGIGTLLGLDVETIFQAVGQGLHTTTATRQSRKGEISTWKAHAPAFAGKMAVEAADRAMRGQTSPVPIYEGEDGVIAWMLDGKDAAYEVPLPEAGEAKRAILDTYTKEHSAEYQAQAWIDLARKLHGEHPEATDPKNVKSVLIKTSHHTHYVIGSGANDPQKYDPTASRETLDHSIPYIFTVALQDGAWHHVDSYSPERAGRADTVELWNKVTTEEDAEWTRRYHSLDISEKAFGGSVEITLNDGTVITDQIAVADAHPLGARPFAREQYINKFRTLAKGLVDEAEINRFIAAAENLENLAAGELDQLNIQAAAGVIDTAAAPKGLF
The test is described as above. The conditions noted are these: LB broth without strain OTC-16, 30 C, 180 rpm, 4 days, product not identified, not described as purified. The format is biochemical.

Each structure is given as a SMILES string.

T1 sequence (A0ABQ0RHS3 entry or part of it): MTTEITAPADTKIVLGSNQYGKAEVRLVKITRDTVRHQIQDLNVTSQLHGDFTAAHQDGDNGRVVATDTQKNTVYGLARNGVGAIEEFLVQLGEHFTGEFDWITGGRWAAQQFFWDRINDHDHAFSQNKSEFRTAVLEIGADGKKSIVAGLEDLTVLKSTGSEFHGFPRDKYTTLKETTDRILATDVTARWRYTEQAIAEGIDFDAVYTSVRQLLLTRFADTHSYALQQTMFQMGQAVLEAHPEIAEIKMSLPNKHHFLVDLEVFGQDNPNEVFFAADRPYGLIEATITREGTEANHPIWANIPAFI

For `CN(C)[C@@H]1C(=O)C(C(N)=O)=C(O)[C@@]2(O)C(=O)C3=C(O)c4c(O)cccc4[C@@](C)(O)[C@H]3[C@H](O)[C@@H]12` [oxytetracycline], the “OTC depletion by HPLC after adding 0.1 mg expressed protein extract” value is “the degradation proteins prpD and uaZ exhibited degradation effects on OTC” on uaZ; “the degradation proteins prpD and uaZ exhibited degradation effects on OTC” on prpD.
